# Experimental data reported in US20210323977A1, “PYRROLIDINYL AMIDE COMPOUNDS FOR THE TREATMENT OF AUTOIMMUNE DISEASE” (Hoffmann-La Roche Inc., priority 2018, published 2021).
# Biological target: T1, human TLR7 (Homo sapiens, UniProt Q9NYK1)
# T1 sequence (Q9NYK1 27-1049): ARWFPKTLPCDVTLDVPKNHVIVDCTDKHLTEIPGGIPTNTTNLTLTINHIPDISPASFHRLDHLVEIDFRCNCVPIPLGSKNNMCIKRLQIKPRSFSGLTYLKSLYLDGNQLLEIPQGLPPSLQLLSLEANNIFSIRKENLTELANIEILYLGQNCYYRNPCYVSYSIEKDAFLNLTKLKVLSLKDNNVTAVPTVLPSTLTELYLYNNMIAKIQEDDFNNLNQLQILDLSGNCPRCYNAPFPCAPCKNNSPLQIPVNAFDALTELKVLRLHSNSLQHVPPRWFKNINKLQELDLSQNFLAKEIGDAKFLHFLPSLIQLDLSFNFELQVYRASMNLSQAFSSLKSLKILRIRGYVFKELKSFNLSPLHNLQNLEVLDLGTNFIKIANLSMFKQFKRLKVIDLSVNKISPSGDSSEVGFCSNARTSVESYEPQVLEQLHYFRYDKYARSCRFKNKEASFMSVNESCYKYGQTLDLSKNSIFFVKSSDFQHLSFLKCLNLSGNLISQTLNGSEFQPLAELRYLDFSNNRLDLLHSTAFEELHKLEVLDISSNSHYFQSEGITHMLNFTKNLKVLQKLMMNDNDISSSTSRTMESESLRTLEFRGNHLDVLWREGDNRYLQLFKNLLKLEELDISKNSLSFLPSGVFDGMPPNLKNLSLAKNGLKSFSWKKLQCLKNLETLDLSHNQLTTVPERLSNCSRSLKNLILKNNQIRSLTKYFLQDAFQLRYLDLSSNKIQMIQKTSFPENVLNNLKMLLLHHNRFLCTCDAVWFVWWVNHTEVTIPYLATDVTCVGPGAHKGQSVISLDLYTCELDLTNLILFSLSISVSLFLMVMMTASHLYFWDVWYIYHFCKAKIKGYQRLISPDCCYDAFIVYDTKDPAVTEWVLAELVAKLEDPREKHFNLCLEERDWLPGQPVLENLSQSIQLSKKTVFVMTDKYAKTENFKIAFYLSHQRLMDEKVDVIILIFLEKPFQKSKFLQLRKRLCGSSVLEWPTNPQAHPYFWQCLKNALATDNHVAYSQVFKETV
# Test: HEK293-Blue-hTLR-7 cells assay
# Assay type: cell-based
# Details: HEK293-Blue-hTLR7 cells, SEAP reporter, R848 stimulation, 20 hrs
# Text: HEK293-Blue-hTLR-7 Cells Assay:
# A stable HEK293-Blue-hTLR-7 cell line was purchased from InvivoGen (Cat. #: hkb-htlr7, San Diego, Calif., USA). These cells were originally designed for studying the stimulation of human TLR7 by monitoring the activation of NF-κB. A SEAP (secreted embryonic alkaline phosphatase) reporter gene was placed under the control of the IFN-β minimal promoter fused to five NF-κB and AP-1-binding sites. The SEAP was induced by activating NF-κB and AP-1 via stimulating HEK-Blue hTLR7 cells with TLR7 ligands. Therefore the reporter expression was declined by TLR7 antagonist under the stimulation of a ligand, such as R848 (Resiquimod), for incubation of 20 hrs. The cell culture supernatant SEAP reporter activity was determined using QUANTI-Blue™ kit (Cat. #: rep-qb1, Invivogen, San Diego, Ca, USA) at a wavelength of 640 nm, a detection medium that turns purple or blue in the presence of alkaline phosphatase.
# HEK293-Blue-hTLR7 cells were incubated at a density of 250,000˜450,000 cells/mL in a volume of 170 μL in a 96-well plate in Dulbecco's Modified Eagle's medium (DMEM) containing 4.5 g/L glucose, 50 U/mL penicillin, […], […], 2 mM L-glutamine, 10% (v/v) heat-inactivated fetal bovine serum with addition of 20 sL test compound in a serial dilution in the presence of final DMSO at 1% and 10 μL of 20 uM R848 in above DMEM, perform incubation under 37° C. in a CO2 incubator for 20 hrs. Then 20 μL of the supernatant from each well was incubated with 180 sL Quanti-blue substrate solution at 37° C. for 2 hrs and the absorbance was read at 620-655 nm using a spectrophotometer. The signalling pathway that TLR7 activation leads to downstream NF-κB activation has been widely accepted, and therefore similar reporter assay was modified for evaluating TLR7 antagonist.
row,SMILES,IC50 [nM]
1,"N[C@@H]1CCC[C@H](NC(=O)C2CN(c3ccc(C(F)(F)F)c4nccnc34)CC23CC3)C1 (relative stereo) [Example 43, Cis-N-(3-aminocyclohexyl)-5-[8-(trifluoromethyl)quinoxalin-5-yl]-5-azaspiro[2.4]heptane-7-carboxamide]",81
2,"CN1CCC(NC(=O)C2CN(c3ccc(C#N)c4nccnc34)CC23CC3)CC1 (single isomer, unassigned) [Example 7A, 5-(8-Cyanoquinoxalin-5-yl)-N-(1-methyl-4-piperidyl)-5-azaspiro[2.4]heptane-7-carboxamide]",4
3,"N#Cc1ccc(N2CC(C(=O)NC[C@H]3CNCCO3)C3(CC3)C2)c2nccnc12 (single isomer, unassigned) [Example 70B]",233
4,"CN1CCC(NC(=O)[C@@H]2CN(c3ccc(C#N)c4ncccc34)C[C@H]2C(F)F)CC1 (relative stereo) [Example 40, Trans-1-(8-cyano-5-quinolyl)-4-(difluoromethyl)-N-(1-methyl-4-piperidyl)pyrrolidine-3-carboxamide]",79
5,"N#Cc1ccc(N2CC(C(=O)NC3CCCNCC3)C(C(F)(F)F)C2)c2cccnc12 (single isomer, unassigned) [Example 30A, N-(azepan-4-yl)-1-(8-cyano-5-quinolyl)-4-(trifluoromethyl)pyrrolidine-3-carboxamide]",41
6,"CC(C)[C@@H]1CN(c2ccc(C#N)c3ncccc23)C[C@H]1C(=O)NC1CCN(C)CC1 (relative stereo) [Example 37, Trans-1-(8-cyano-5-quinolyl)-4-isopropyl-N-(1-methyl-4-piperidyl)pyrrolidine-3-carboxamide]",59
7,"C[C@@H]1CN(c2ccc(C#N)c3ncccc23)C[C@H]1C(=O)N1CCC2(CCNCC2)CC1 (relative stereo) [Example 32, Trans-5-[3-(3,9-diazaspiro[5.5]undecane-3-carbonyl)-4-methyl-pyrrolidin-1-yl]quinoline-8-carbonitrile]",44
8,"C[C@@H]1CN(c2ccc(C#N)c3ncccc23)C[C@H]1C(=O)N1CCC2(CCNC2)C1 (relative stereo) [Example 53, Trans-5-[3-(2,7-diazaspiro[4.4]nonane-2-carbonyl)-4-methyl-pyrrolidin-1-yl]quinoline-8-carbonitrile]",226
9,"C[C@H]1CN(c2ccc(C(F)(F)F)c3nccnc23)C[C@@H]1C(=O)NC1CCN(C)CC1 [Example 5, (3R,4R)-4-methyl-N-(1-methyl-4-piperidyl)-1-[8-(trifluoromethyl)quinoxalin-5-yl]pyrrolidine-3-carboxamide]",8
10,"CN1CC(NC(=O)C2CN(c3ccc(C(F)(F)F)c4nccnc34)CC23CC3)C2(CC2)C1 (stereo not shown) [Example 20, N-(5-methyl-5-azaspiro[2.4]heptan-7-yl)-5-[8-(trifluoromethyl)quinoxalin-5-yl]-5-azaspiro[2.4]heptane-7-carboxamide]",25
11,"CN1CCC(NC(=O)C2CN(c3ccc(C#N)c4ncccc34)CC2C(F)(F)F)CC1 (stereo not shown) [Example 18, 1-(8-Cyano-5-quinolyl)-N-(1-methyl-4-piperidyl)-4-(trifluoromethyl)pyrrolidine-3-carboxamide]",23
12,"C[C@@H]1CN(c2ccc(C#N)c3ncccc23)C[C@H]1C(=O)N[C@H]1CNC[C@H]1F [Example 56, Trans-1-(8-cyano-5-quinolyl)-N-[(3S,4R)-4-fluoropyrrolidin-3-yl]-4-methyl-pyrrolidine-3-carboxamide]",282
13,"Cc1ccc(N2C[C@H](C(=O)NC3CCN(C)CC3)[C@@H](C)C2)c2nccnc12 [Example 33, (3R,4R)-4-Methyl-N-(1-methyl-4-piperidyl)-1-(8-methylquinoxalin-5-yl)pyrrolidine-3-carboxamide]",45
14,"N[C@H]1CC[C@@H](NC(=O)C2CN(c3ccc(C(F)(F)F)c4nccnc34)CC23CC3)CC1 (stereo partly shown) [Example 39, N-(4-Aminocyclohexyl)-5-[8-(trifluoromethyl)quinoxalin-5-yl]-5-azaspiro[2.4]heptane-7-carboxamide]",74
15,"O=C(NC1CC2COCC(C1)N2)C1CN(c2ccc(C(F)(F)F)c3nccnc23)CC12CC2 (stereo not shown) [Example 6, N-(3-oxa-9-azabicyclo[3.3.1]nonan-7-yl)-5-[8-(trifluoromethyl)quinoxalin-5-yl]-5-azaspiro[2.4]heptane-7-carboxamide]",9
16,"N#Cc1ccc(N2CC(C(=O)NC[C@H]3CNCCO3)C3(CC3)C2)c2nccnc12 (single isomer, unassigned) [Example 70A]",19
17,"CN1CCC(NC(=O)[C@@H]2CN(c3ccc(Cl)c4ncccc34)C[C@H]2C(F)(F)F)CC1 (relative stereo) [Example 46, Trans-1-(8-chloro-5-quinolyl)-N-(1-methyl-4-piperidyl)-4-(trifluoromethyl)pyrrolidine-3-carboxamide]",108
18,"CN1CCC(NC(=O)C2CN(c3ccc(C(F)(F)F)c4nccnc34)CC23CC3)CC1 (stereo not shown) [Example 11, N-(1-methyl-4-piperidyl)-5-[8-(trifluoromethyl)quinoxalin-5-yl]-5-azaspiro[2.4]heptane-7-carboxamide]",13
19,"C[C@H]1CN(c2ccc(Cl)c3ncccc23)C[C@@H]1C(=O)NC1CCN(C)CC1 [Example 50, (3R,4R)-1-(8-chloro-5-quinolyl)-4-methyl-N-(1-methyl-4-piperidyl)pyrrolidine-3-carboxamide]",178
20,"CN1CCC(NC(=O)[C@H]2CN(c3ccc(C#N)c4ncccc34)C[C@@H]2C(F)(F)F)CC1 [Example 4, (3R,4R)-1-(8-cyano-5-quinolyl)-N-(1-methyl-4-piperidyl)-4-(trifluoromethyl)pyrrolidine-3-carboxamide]",9
21,"C[C@@H]1CN(c2ccc(C(F)(F)F)c3nccnc23)C[C@H]1C(=O)NC1CCN(C)CC1 [Example 25, (3S,4S)-4-Methyl-N-(1-methyl-4-piperidyl)-1-[8-(trifluoromethyl)quinoxalin-5-yl]pyrrolidine-3-carboxamide]",33
22,"N[C@@H]1C[C@H](NC(=O)C2CN(c3ccc(C(F)(F)F)c4nccnc34)CC23CC3)[C@@H]2C[C@@H]21 (stereo partly drawn) [Example 36, N-[(1R,2S,4R,5S)-4-amino-2-bicyclo[3.1.0]hexanyl]-5-[8-(trifluoromethyl)quinoxalin-5-yl]-5-azaspiro[2.4]heptane-7-carboxamide]",57
23,"O=C(NC1CC2CCCC(C1)N2)C1CN(c2ccc(C(F)(F)F)c3nccnc23)CC12CC2 (stereo not shown) [Example 10, N-(9-azabicyclo[3.3.1]nonan-3-yl)-5-[8-(trifluoromethyl)quinoxalin-5-yl]-5-azaspiro[2.4]heptane-7-carboxamide]",12
24,"O=C(NC1CC2CNCC(C2)C1)C1CN(c2ccc(C(F)(F)F)c3nccnc23)CC12CC2 (stereo not shown) [Example 15, N-(3-azabicyclo[3.3.1]nonan-7-yl)-5-[8-(trifluoromethyl)quinoxalin-5-yl]-5-azaspiro[2.4]heptane-7-carboxamide]",21
25,"O=C(NC1CC2(CCNCC2)C1)C1CN(c2ccc(C(F)(F)F)c3nccnc23)CC12CC2 (stereo not shown) [Example 34, N-(7-azaspiro[3.5]nonan-2-yl)-5-[8-(trifluoromethyl)quinoxalin-5-yl]-5-azaspiro[2.4]heptane-7-carboxamide]",46
